Converted amounts (≈) assume the structure as drawn.
Key:
[1] = test system: Staphylococcus aureus; experiment: Antibacterial activity against methicillin-resistant Staphylococcus aureus MW2 BAA 1707 assessed as growth inhibition by standard microdilution method; assay type: functional
[2] = test system: HepG2; experiment: Cytotoxicity against human HepG2 cells assessed as reduction in cell viability measured after 24 hrs by WST1 assay; assay type: functional; conditions: HepG2, 24 h, read-out: LC50 (the source's name)
[3] = Hemolytic activity against human erythrocytes measured after 1 hr; assay type: ADME, cell-based, Erythrocyte
[4] = test system: Staphylococcus aureus; experiment: Antibacterial activity against vancomycin-resistant Staphylococcus aureus VRS1 assessed as growth inhibition by standard microdilution method; assay type: functional
[5] = test system: HeLa; experiment: Cytotoxicity against human HeLa cells assessed as reduction in cell viability measured after 24 hrs by WST1 assay; assay type: functional; conditions: read-out: LC50 (the source's name)
[6] = test system: Staphylococcus aureus; experiment: Antibacterial activity against methicillin-resistant Staphylococcus aureus JE2 assessed as growth inhibition by standard microdilution method; assay type: functional
[7] = test system: Staphylococcus aureus; experiment: Antibacterial activity against methicillin-resistant Staphylococcus aureus ATCC 33591 assessed as growth inhibition by standard microdilution method; assay type: functional
[8] = test system: Staphylococcus aureus; experiment: Antibiofilm activity against methicillin-resistant Staphylococcus aureus MW2 assessed as reduction in number of viable cells by measuring colony forming units at 16 fold MIC relative to control; assay type: functional
[9] = test system: Staphylococcus aureus; experiment: Antibacterial activity against methicillin-resistant Staphylococcus aureus MW2 assessed as growth inhibition; assay type: functional

Compound | MIC [1] | CC50 [2] | HC50 at 1 h [3] | MIC [4] | CC50 [5] | MIC [6] | MIC [7] | inhibition (INH) [8] | MIC [9]
CCCCCC=Cc1cc(-c2ccc3cc(C(=O)O)ccc3c2)ccc1O | 8 µg/mL | 2.44 µg/mL | 45.4 µg/mL |  |  |  |  |  | 
CC(C)(C)c1cc(-c2ccc3cc(C(=O)O)ccc3c2)ccc1O | 16 µg/mL | 9.8 µg/mL | > 64 µg/mL |  |  |  |  |  | 
CCCCCCCc1cc(-c2ccc3cc(CO)ccc3c2)ccc1O | 4 µg/mL | 3.61 µg/mL | > 64 µg/mL |  |  |  |  |  | 
O=C(O)c1ccc2cc(-c3ccc(O)cc3)ccc2c1 | > 64 µg/mL | > 32 µg/mL | > 64 µg/mL |  |  |  |  |  | 
Cc1cc(-c2ccc3cc(C(=O)O)ccc3c2)ccc1O | > 64 µg/mL | > 32 µg/mL | > 64 µg/mL |  |  |  |  |  | 
CCCCCc1cc(-c2ccc3cc(CO)ccc3c2)ccc1O | 4 µg/mL | 3.27 µg/mL | > 64 µg/mL |  |  |  |  |  | 
CN[C@H](CC(C)C)C(=O)N[C@H]1C(=O)N[C@@H](CC(N)=O)C(=O)N[C@H]2C(=O)N[C@H]3C(=O)N[C@H](C(=O)N[C@H](C(=O)O)c4cc(O)cc(O)c4-c4cc3ccc4O)[C@H](O)c3ccc(c(Cl)c3)Oc3cc2cc(c3O[C@@H]2O[C@H](CO)[C@@H](O)[C@H](O)[C@H]2O[C@H]2C[C@](C)(N)[C@H](O)[C@H](C)O2)Oc2ccc(cc2Cl)[C@H]1O [VANCOMYCIN] |  |  |  | > 64 µg/mL |  |  |  |  | 
CCCC=Cc1cc(-c2ccc3cc(C(=O)O)ccc3c2)ccc1O | 16 µg/mL | 5.38 µg/mL | > 64 µg/mL |  |  |  |  |  | 
CCCCCCCc1cc(-c2ccc3cc(C(=O)O)ccc3c2)ccc1O | 4 µg/mL | 1.89 µg/mL | > 64 µg/mL |  | 0.6 µg/mL (≈ 1.66 µM) |  |  |  | 
OCc1ccc2cc(-c3ccc(O)cc3)ccc2c1 | > 64 µg/mL | 1700 nM | > 64 µg/mL |  |  |  |  |  | 
CCCCCCCC=Cc1cc(-c2ccc3cc(CO)ccc3c2)ccc1O | > 64 µg/mL | 5.51 µg/mL | > 64 µg/mL |  |  |  |  |  | 
CCCCCC=Cc1cc(-c2ccc3cc(CO)ccc3c2)ccc1O | 4 µg/mL | 4.19 µg/mL | > 64 µg/mL |  |  |  |  |  | 
CC(C)(C)c1cc(-c2ccc3cc(CO)ccc3c2)ccc1O | 8 µg/mL | 7.5 µg/mL | > 64 µg/mL |  |  |  |  |  | 
O=C(O)c1ccc2cc(-c3ccc(O)c(C45CC6CC(CC(C6)C4)C5)c3)ccc2c1 [O-DEMETHYLATED ADAPALENE] | 1 µg/mL | 1.02 µg/mL | > 64 µg/mL | 1 µg/mL | 0.21 µg/mL (≈ 0.527 µM) | 1 µg/mL | 1 µg/mL | 90% | 2 µg/mL (≈ 5.02 µM)
CCCCCCCCCc1cc(-c2ccc3cc(C(=O)O)ccc3c2)ccc1O | 4 µg/mL | 1.73 µg/mL | 22.8 µg/mL |  |  |  |  |  | 
CCCC=Cc1cc(-c2ccc3cc(CO)ccc3c2)ccc1O | 4 µg/mL | 3.89 µg/mL | > 64 µg/mL |  |  |  |  |  | 
CC12CC3CC(C)(C1)CC(c1cc(-c4ccc5cc(CO)ccc5c4)ccc1O)(C3)C2 | 8 µg/mL | 11.7 µg/mL | > 64 µg/mL |  |  |  |  |  | 
CCCCCc1cc(-c2ccc3cc(C(=O)O)ccc3c2)ccc1O | 8 µg/mL | 3.26 µg/mL | > 64 µg/mL |  |  |  |  |  | 
CCCCCCCC=Cc1cc(-c2ccc3cc(C(=O)O)ccc3c2)ccc1O | 4 µg/mL | 2.6 µg/mL | 51.5 µg/mL |  |  |  |  |  | 
CCCCCCCCCc1cc(-c2ccc3cc(CO)ccc3c2)ccc1O | > 64 µg/mL | 7.25 µg/mL | > 64 µg/mL |  |  |  |  |  | 
Cc1cc(-c2ccc3cc(CO)ccc3c2)ccc1O | > 64 µg/mL | > 32 µg/mL | > 64 µg/mL |  |  |  |  |  | 
CC12CC3CC(C)(C1)CC(c1cc(-c4ccc5cc(C(=O)O)ccc5c4)ccc1O)(C3)C2 | 2 µg/mL | 1.84 µg/mL | 15.2 µg/mL | 2 µg/mL | 0.49 µg/mL (≈ 1.15 µM) | 2 µg/mL | 2 µg/mL |  | 

From ChEMBL document CHEMBL4342495, “Structure-Activity Relationship and Anticancer Profile of Second-Generation Anti-MRSA Synthetic Retinoids” (ACS Med Chem Lett, 2020)
